# Tests used:
# Type in all cases: in vivo
# [1] = test system: Triticum aestivum; test: Crop compatibility post-emergence, greenhouse pot test; details: application rate 20 g/ha
# In short: (§1)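 Crop tolerance is rated as visual percent injury relative to untreated plants, about 3 weeks after a post-emergence foliar spray at the one-leaf stage. Sprays use WP or EC formulations diluted in water with 0.5% additive at 600 L/ha; plants are grown in sandy loam pots under greenhouse conditions.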
# [2] = test system: Veronica persica; test: Herbicidal action pre-emergence, greenhouse pot test
# In short: (§2)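 Seeds sown in pots and covered with soil; WP or EC formulations sprayed onto the soil surface as aqueous suspension/emulsion with 0.5% additive at 600 L/ha water, at 320 g/ha or lower. Plants kept in greenhouse; efficacy scored visually after about 3 weeks as % versus untreated controls (100% = dead).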
# [3] = test system: Polygonum convolvulus; test: as above
# In short: as §2
# [4] = test system: Viola tricolor; test: as above
# In short: as §2
# [5] = test system: Echinochloa crus-galli; test: as above
# In short: as §2
# [6] = test system: Pharbitis purpurea; test: as above
# In short: as §2
# [7] = test system: Stellaria media; test: as above
# In short: as §2
# [8] = test system: Setaria viridis; test: as above
# In short: as §2
# [9] = test system: Amaranthus retroflexus; test: as above; details: application rate 80 g/ha
# In short: as §2
# [10] = test system: Abutilon theophrasti; test: as above
# In short: as §2
# [11] = test system: Matricaria inodora; test: as above
# [12] = test system: Veronica persica; test: Herbicidal action post-emergence, greenhouse pot test
# In short: (§3)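 Weeds in sandy loam pots sprayed at one-leaf stage (2–3 weeks after sowing) with WP or EC formulations in water plus 0.5% additive, 600 L/ha, at 80 g/ha or lower. After about 3 weeks in greenhouse, efficacy scored visually versus untreated controls (100% = dead, 0% = like control).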
# [13] = test system: Polygonum convolvulus; test: as above
# In short: as §3
# [14] = test system: Matricaria inodora; test: as above
# In short: as §3
# [15] = test system: Viola tricolor; test: as above
# In short: as §3
# [16] = test system: Echinochloa crus-galli; test: as above
# In short: as §3
# [17] = test system: Alopecurus myosuroides; test: as above; details: scored visually after about 3 weeks vs untreated controls
# In short: as §3
# [18] = test system: Pharbitis purpurea; test: as above
# In short: as §3
# [19] = test system: Stellaria media; test: as above
# In short: as §3
# [20] = test system: Setaria viridis; test: as above
# In short: as §3
# [21] = test system: Amaranthus retroflexus; test: as above
# In short: as §3
# [22] = test system: Abutilon theophrasti; test: as above
# In short: as §3
# [23] = test system: Digitaria sanguinalis; test: as above; details: application rate 20 g/ha
# [24] = test system: Digitaria sanguinalis; test: Herbicidal action pre-emergence, greenhouse pot test; details: application rate 80 g/ha
# Source text: Seeds of mono- and dicotyledonous weeds and crop plants were laid out in plastic or organic plant pots and covered with soil. The compounds of the invention formulated in the form of wettable powders (WP) or as emulsion concentrates (EC) were then applied to the surface of the covering soil as an aqueous suspension or emulsion with addition of 0.5% additive at a water application rate equivalent to 600 L/ha. After the treatment, the pots were placed in a greenhouse and kept under good growth conditions for the test plants. After about 3 weeks, the efficacy of the preparations was scored visually as a percentage by comparison with untreated controls. For example, 100% efficacy=plants have died. 0% efficacy=like control plants.
# [25] = test system: Glycine max; test: Crop compatibility post-emergence, greenhouse pot test; details: application rate 20 g/ha
# In short: as §1
# [26] = test system: Oryza sativa; test: as above; details: application rate 80 g/ha
# In short: as §1
# [27] = test system: Zea mays; test: as above; details: application rate 80 g/ha
# In short: as §1
# [28] = test system: Hordeum murinum; test: Herbicidal action pre-emergence, greenhouse pot test; details: application rate 320 g/ha
# In short: as §2
# [29] = test system: Lolium rigidum; test: as above; details: application rate 320 g/ha
# In short: as §2
# [30] = test system: Alopecurus myosuroides; test: as above; details: application rate 320 g/ha
# In short: as §2
# [31] = test system: Avena fatua; test: as above; details: application rate 320 g/ha
# In short: as §2
# [32] = test system: Lolium rigidum; test: Herbicidal action post-emergence, greenhouse pot test; details: application rate 80 g/ha
# In short: as §3
# [33] = test system: Avena fatua; test: as above; details: application rate 80 g/ha
# In short: as §3
structure (smiles),measurement,setting,value
CC(Sc1cc(-n2c(=O)cc(C(F)(F)F)n(C)c2=O)c(F)cc1Cl)C(=O)OC1C(=O)OCC1(C)C (stereo not shown) [I.1-142],Triticum aestivum (Efficacy in %),[1],20%
same,Veronica persica (Efficacy in %),[2]; application rate 80 g/ha,100%
same,Polygonum convolvulus (Efficacy in %),[3]; application rate 80 g/ha,100%
same,Viola tricolor (Efficacy in %),[4]; application rate 80 g/ha,100%
same,Echinochloa crus-galli (Efficacy in %),[5]; application rate 80 g/ha,90%
same,Pharbitis purpurea (Efficacy in %),[6]; application rate 80 g/ha,90%
same,Stellaria media (Efficacy in %),[7]; application rate 80 g/ha,100%
same,Setaria viridis (Efficacy in %),[8]; application rate 80 g/ha,100%
same,Amaranthus retroflexus (Efficacy in %),[9],100%
same,Abutilon theophrasti (Efficacy in %),[10]; application rate 80 g/ha,100%
same,Matricaria inodora (Efficacy in %),[11]; application rate 80 g/ha,100%
same,Veronica persica (Efficacy in %),[12]; application rate 20 g/ha,100%
same,Polygonum convolvulus (Efficacy in %),[13]; application rate 20 g/ha,100%
same,Matricaria inodora (Efficacy in %),[14]; application rate 20 g/ha,100%
same,Viola tricolor (Efficacy in %),[15]; application rate 20 g/ha,100%
same,Echinochloa crus-galli (Efficacy in %),[16]; application rate 20 g/ha,100%
same,Alopecurus myosuroides (Efficacy in %),[17]; application rate 20 g/ha,80%
same,Pharbitis purpurea (Efficacy in %),[18]; application rate 20 g/ha,100%
same,Stellaria media (Efficacy in %),[19]; application rate 20 g/ha,100%
same,Setaria viridis (Efficacy in %),[20]; application rate 20 g/ha,100%
same,Amaranthus retroflexus (Efficacy in %),[21]; application rate 20 g/ha,100%
same,Abutilon theophrasti (Efficacy in %),[22]; application rate 20 g/ha,100%
same,Digitaria sanguinalis (Efficacy in %),[23],100%
same,Digitaria sanguinalis (Efficacy in %),[24],100%
CC(Sc1cc(-n2c(=O)cc(C(F)(F)F)n(C)c2=O)c(F)cc1Cl)C(=O)OCC1CCC(=O)N1 (stereo not shown) [I.1-255],Glycine max (Efficacy in %),[25],20%
same,Triticum aestivum (Efficacy in %),[1],10%
same,Oryza sativa (Efficacy in %),[26],0%
same,Zea mays (Efficacy in %),[27],10%
same,Hordeum murinum (Efficacy in %),[28],100%
same,Lolium rigidum (Efficacy in %),[29],100%
same,Veronica persica (Efficacy in %),[2]; application rate 320 g/ha,100%
same,Polygonum convolvulus (Efficacy in %),[3]; application rate 320 g/ha,100%
same,Viola tricolor (Efficacy in %),[4]; application rate 320 g/ha,100%
same,Echinochloa crus-galli (Efficacy in %),[5]; application rate 320 g/ha,100%
same,Alopecurus myosuroides (Efficacy in %),[30],90%
same,Avena fatua (Efficacy in %),[31],90%
same,Pharbitis purpurea (Efficacy in %),[6]; application rate 320 g/ha,100%
same,Stellaria media (Efficacy in %),[7]; application rate 320 g/ha,100%
same,Setaria viridis (Efficacy in %),[8]; application rate 320 g/ha,100%
same,Amaranthus retroflexus (Efficacy in %),[9],100%
same,Abutilon theophrasti (Efficacy in %),[10]; application rate 320 g/ha,100%
same,Matricaria inodora (Efficacy in %),[11]; application rate 320 g/ha,100%
same,Lolium rigidum (Efficacy in %),[32],100%
same,Veronica persica (Efficacy in %),[12]; application rate 80 g/ha,100%
same,Polygonum convolvulus (Efficacy in %),[13]; application rate 80 g/ha,100%
same,Matricaria inodora (Efficacy in %),[14]; application rate 80 g/ha,100%
same,Viola tricolor (Efficacy in %),[15]; application rate 80 g/ha,100%
same,Echinochloa crus-galli (Efficacy in %),[16]; application rate 80 g/ha,100%
same,Alopecurus myosuroides (Efficacy in %),[17]; application rate 80 g/ha,90%
same,Avena fatua (Efficacy in %),[33],80%
same,Pharbitis purpurea (Efficacy in %),[18]; application rate 80 g/ha,100%
same,Stellaria media (Efficacy in %),[19]; application rate 80 g/ha,100%
same,Setaria viridis (Efficacy in %),[20]; application rate 80 g/ha,100%
same,Amaranthus retroflexus (Efficacy in %),[21]; application rate 80 g/ha,100%
same,Abutilon theophrasti (Efficacy in %),[22]; application rate 80 g/ha,100%
